Measurements reported in patent US11732003B2, “Mechanical method of maintaining narrow residence time distributions in continuous flow systems” (priority 2017, dated 2023).
Read-outs that look alike come from different tables or passages of the source.

Experiments:
Phi6 [1] = conditions: static, pH 3.6 (8.7 M acetic acid), mAb 5 mg/mL, 22-25° C.
Description: In this representative experiment, the purpose was to evaluate the inactivation kinetics of an enveloped bacteriophage virus (Phi6) at low pH conditions. The objective was to determine the exposure time required for complete inactivation.
A monoclonal antibody (mAb) was purified by standard Protein A chromatography and prepared at a concentration of 5 mg/mL. […] Human serum albumin (HSA) (0.25% v/v) was added for Phi6 stability. Following confirmation of pH, the virus spike was added to the sample reservoir containing the mAb and vortexed to ensure a well-mixed system. The Phi6 target spike level was 1×10^7 pfu (plaque forming units)/mL. Within 0.3 minutes of the virus addition, a 1 mL sample was removed and transferred to a tube containing a previously determined volume of 2 M Tris Base, pH 10 to neutralize (pH 6-8) the sample and quench the inactivation step. The tube was vortexed after the base addition. This process of removing and neutralizing a sample was repeated for each time point. These experiments were carried out at room temperature, 22-25° C. Control samples at the initial and final time points were also analyzed. For the control samples, the pH was maintained at the feed pH level (pH 6.3) but the samples were diluted similarly to the actual samples using the background buffer at pH 6.3.

[2] = system: xenotropic murine leukemia virus (XMuLV); conditions: static, mAb 18 g/L; for Time to Complete Inactivation: XMuLV
Description: The purpose of this study was to evaluate the virus inactivation kinetics of xenotropic murine leukemia virus (XMuLV, an enveloped virus commonly used for clearance studies of monoclonal antibody products, under low pH conditions. The objective was to determine the exposure time required for complete inactivation.
Following confirmation of pH, the virus spike was added to the sample reservoir containing the mAb and vortexed to ensure a well-mixed system. The XMuLV target spike level was 1×10^7 TCID50/mL (TCID50=Tissue Culture Infection Dose) (4% spike v/v). Within 0.3 minutes of the virus addition, a 1 mL sample was removed and transferred to a tube containing a previously determined volume of 2 M Tris Base to neutralize (pH 6-8) the sample and quench the inactivation step. The tube was vortexed after the base addition. This process of removing and neutralizing a sample was repeated for each time point. These experiments were carried out at room temperature, 22-25° C. Control samples at the initial and final time points were also analyzed. For the control samples, the pH was maintained at the feed pH level but the samples were diluted similarly to the actual samples using the background buffer.
The neutralized samples were assayed for infectivity using the cell-based TCID50 infectivity assay using PG4 indicator cells (Bolton G, Cabatingan M, Rubino M, et al. Normal-flow virus filtration:detection and assessment of the endpoint in bio-processing. Biotechnol Appl Biochem 2005; 42: 133-42). To mitigate cytotoxicity and quench the virus inactivation, samples were diluted 1:50 with ten-fold serial dilutions in cell culture media and then 100 μl aliquots of each dilution were added to a 96-well plate. Following incubation at 37° C. in 5% CO2 for 7 days, infected wells were visually assessed for cytopathic effect (CPE). Titers and LRVs were calculated using standard methods (ICH. Guidance on Viral Safety Evaluation of Biotechnology Products Derived From Cell Lines of Human or Animal Origin. In: Use ICoHoTRfRoPfH, ed. Geneva, Switzerland: ICH, 1998). To determine the LRV at each time point, the titer of the time point was subtracted from the titer of the closest control time point.

Phi6 [3] = conditions: in-line continuous flow, 1 M acetic acid added at 0.75 mL/min to 1 mL/min feed
Description: This representative example describes the use of a continuous flow system to carry out low pH virus inactivation.
A system consisting of a main feed pump, an acid addition pump, and a base addition pump was used to inactivate virus under continuous flow conditions. A mAb solution was spiked with Phi6 and was connected to the main feed pump inlet. The Phi6 target spike level was 1×10^8 pfu/mL. […] The feed flow rate was set to 1 mL/min. Acid was added into the main stream at a flow rate of 0.75 mL/min. The fluid then passed through a static mixer and a length of tubing designed to contain a particular volume (targeting a desired residence time). Different lengths of tubing were used to contain the required volume for each target average residence time (1, 2, 3, 4, 5, 15 min) after accounting for the dead volume from the valves and pH probe between the acid addition point and the beginning of the incubation chamber. […] At the outlet of the incubation chamber, the material was neutralized by the addition of base into the main line at a flow rate of 0.4 mL/min. The fluid passed through another static mixer and then the neutralized samples were collected at the outlet and assayed for infectivity using the plaque assay. These experiments were carried out at room temperature, 22-25° C. Control samples were also assayed. For the control samples, the pH was maintained at the feed pH level but the samples were diluted similarly to the actual samples using the background buffer.

Phi6 [4] = assay: Static detergent-based virus inactivation, plaque assay for infectivity; type: cell-based, bacteriophage virus
Description: The purpose of this study was to examine detergent-based virus inactivation kinetics. In this representative experiment, two different concentrations (0.1% and 1.0% v/v) of a detergent, Triton X-100, were used to inactivate a bacteriophage virus, Phi6.
The virus spike was added and vortexed to ensure a well-mixed system. […] Detergent was added to reach the desired concentrations of 0.1% and 1.0% v/v. At various time points, a sample was removed and quenched by adding it to buffer at a 1:1000 dilution ratio. The tubes were vortexed after the detergent addition.

CC(=O)O [acetic acid]
Phi6 Log Reduction Values (LRV) (Phi6 [1]; inactivation time 1 min): ≥6.8
Phi6 Log Reduction Values (LRV) (Phi6 [1]; inactivation time 2 min): ≥6.8
Phi6 Log Reduction Values (LRV) (Phi6 [1]; inactivation time 3 min): ≥6.8
Phi6 Log Reduction Values (LRV) (Phi6 [1]; inactivation time 4 min): ≥6.8
Phi6 Log Reduction Values (LRV) (Phi6 [1]; inactivation time 5 min): ≥6.8
Phi6 Log Reduction Values (LRV) (Phi6 [1]; inactivation time 15 min): ≥6.8
Time to Complete Inactivation ([2]; pH 4.0 (8.7 M acetic acid)): ≤15 min
Time to Complete Inactivation ([2]; pH 4.2 (8.7 M acetic acid)): ≤30 min
XMuLV LRV ([2]; pH 3.5 (8.7 M acetic acid), inactivation time 0.3 min): 4.0
XMuLV LRV ([2]; pH 3.5 (8.7 M acetic acid), inactivation time 1 min): ≥5.4
XMuLV LRV ([2]; pH 3.5 (8.7 M acetic acid), inactivation time 2 min): ≥5.4
XMuLV LRV ([2]; pH 3.5 (8.7 M acetic acid), inactivation time 3 min): ≥5.4
XMuLV LRV ([2]; pH 3.5 (8.7 M acetic acid), inactivation time 4 min): ≥5.4
XMuLV LRV ([2]; pH 3.5 (8.7 M acetic acid), inactivation time 5 min): ≥5.5
XMuLV LRV ([2]; pH 3.5 (8.7 M acetic acid), inactivation time 15 min): ≥5.5
XMuLV LRV ([2]; pH 3.5 (8.7 M acetic acid), inactivation time 30 min): ≥5.5
XMuLV LRV ([2]; pH 3.5 (8.7 M acetic acid), inactivation time 60 min): ≥5.5
XMuLV LRV ([2]; pH 3.7 (8.7 M acetic acid), inactivation time 0.3 min): 3.6
XMuLV LRV ([2]; pH 3.7 (8.7 M acetic acid), inactivation time 1 min): ≥5.5
XMuLV LRV ([2]; pH 3.7 (8.7 M acetic acid), inactivation time 2 min): ≥5.5
XMuLV LRV ([2]; pH 3.7 (8.7 M acetic acid), inactivation time 3 min): ≥5.5
XMuLV LRV ([2]; pH 3.7 (8.7 M acetic acid), inactivation time 4 min): ≥5.5
XMuLV LRV ([2]; pH 3.7 (8.7 M acetic acid), inactivation time 5 min): ≥5.7
XMuLV LRV ([2]; pH 3.7 (8.7 M acetic acid), inactivation time 15 min): ≥5.7
XMuLV LRV ([2]; pH 3.7 (8.7 M acetic acid), inactivation time 30 min): ≥5.7
XMuLV LRV ([2]; pH 3.7 (8.7 M acetic acid), inactivation time 60 min): ≥5.7
XMuLV LRV ([2]; pH 4.0 (8.7 M acetic acid), inactivation time 0.3 min): 1.6
XMuLV LRV ([2]; pH 4.0 (8.7 M acetic acid), inactivation time 1 min): 4.7
XMuLV LRV ([2]; pH 4.0 (8.7 M acetic acid), inactivation time 2 min): 5.2
XMuLV LRV ([2]; pH 4.0 (8.7 M acetic acid), inactivation time 3 min): 5.3
XMuLV LRV ([2]; pH 4.0 (8.7 M acetic acid), inactivation time 4 min): 5.2
XMuLV LRV ([2]; pH 4.0 (8.7 M acetic acid), inactivation time 5 min): 5.6
XMuLV LRV ([2]; pH 4.0 (8.7 M acetic acid), inactivation time 15 min): ≥5.4
XMuLV LRV ([2]; pH 4.0 (8.7 M acetic acid), inactivation time 30 min): ≥5.4
XMuLV LRV ([2]; pH 4.0 (8.7 M acetic acid), inactivation time 60 min): ≥5.4
XMuLV LRV ([2]; pH 4.2 (8.7 M acetic acid), inactivation time 0.3 min): 1.5
XMuLV LRV ([2]; pH 4.2 (8.7 M acetic acid), inactivation time 1 min): 3.3
XMuLV LRV ([2]; pH 4.2 (8.7 M acetic acid), inactivation time 2 min): 3.5
XMuLV LRV ([2]; pH 4.2 (8.7 M acetic acid), inactivation time 3 min): 3.9
XMuLV LRV ([2]; pH 4.2 (8.7 M acetic acid), inactivation time 4 min): 4.0
XMuLV LRV ([2]; pH 4.2 (8.7 M acetic acid), inactivation time 5 min): 4.2
XMuLV LRV ([2]; pH 4.2 (8.7 M acetic acid), inactivation time 15 min): 4.6
XMuLV LRV ([2]; pH 4.2 (8.7 M acetic acid), inactivation time 30 min): ≥5.7
XMuLV LRV ([2]; pH 4.2 (8.7 M acetic acid), inactivation time 60 min): ≥5.7
Phi6 LRV (Phi6 [3]; average residence time 1 min): ≥6.8
Phi6 LRV (Phi6 [3]; average residence time 2 min): ≥6.8
Phi6 LRV (Phi6 [3]; average residence time 3 min): ≥6.8
Phi6 LRV (Phi6 [3]; average residence time 4 min): ≥6.8
Phi6 LRV (Phi6 [3]; average residence time 5 min): ≥6.8
Phi6 LRV (Phi6 [3]; average residence time 15 min): ≥6.8

Triton X-100
Phi6 LRV (Phi6 [4]; 0.1% v/v Triton X-100, mAb 15 mg/mL, inactivation time 1 min): ≥5.2
Phi6 LRV (Phi6 [4]; 0.1% v/v Triton X-100, mAb 15 mg/mL, inactivation time 2 min): ≥5.2
Phi6 LRV (Phi6 [4]; 0.1% v/v Triton X-100, mAb 15 mg/mL, inactivation time 3 min): ≥5.2
Phi6 LRV (Phi6 [4]; 0.1% v/v Triton X-100, mAb 15 mg/mL, inactivation time 4 min): ≥5.2
Phi6 LRV (Phi6 [4]; 0.1% v/v Triton X-100, mAb 15 mg/mL, inactivation time 5 min): ≥5.2
Phi6 LRV (Phi6 [4]; 0.1% v/v Triton X-100, mAb 15 mg/mL, inactivation time 15 min): ≥5.2
Phi6 LRV (Phi6 [4]; 0.1% v/v Triton X-100, mAb 15 mg/mL, inactivation time 30 min): ≥5.2
Phi6 LRV (Phi6 [4]; 1.0% v/v Triton X-100, mAb 15 mg/mL, inactivation time 1 min): ≥6.2
Phi6 LRV (Phi6 [4]; 1.0% v/v Triton X-100, mAb 15 mg/mL, inactivation time 2 min): ≥6.2
Phi6 LRV (Phi6 [4]; 1.0% v/v Triton X-100, mAb 15 mg/mL, inactivation time 3 min): ≥6.2
Phi6 LRV (Phi6 [4]; 1.0% v/v Triton X-100, mAb 15 mg/mL, inactivation time 4 min): ≥6.2
Phi6 LRV (Phi6 [4]; 1.0% v/v Triton X-100, mAb 15 mg/mL, inactivation time 5 min): ≥6.2
Phi6 LRV (Phi6 [4]; 1.0% v/v Triton X-100, mAb 15 mg/mL, inactivation time 15 min): ≥6.2
Phi6 LRV (Phi6 [4]; 1.0% v/v Triton X-100, mAb 15 mg/mL, inactivation time 30 min): ≥6.2
